{
  "source": "patent US12577226B2",
  "about": "“Compounds for treating Huntington's disease” (PTC THERAPEUTICS, INC., priority 2019, dated 2026)",
  "data": [
    {"system": "Endogenous Huntingtin Protein (capture with MW1 (expanded polyglutamine) or MAB2166 antibody)", "test": "Endogenous Huntingtin Protein Assay (ELISA-based Meso Scale Discovery electrochemiluminescence assay)", "format": "cell-based", "settings": "MSD electrochemiluminescence platform", "summary_of_the_method": "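MSD electrochemiluminescence sandwich immunoassay: plates coated with 1 μg/mL MW1 or MAB2166 capture antibody, samples incubated overnight at 4 °C. Detection with rabbit monoclonal #5656S then SULFO-TAG anti-rabbit (each 0.25 μg/mL, 1 h RT).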", "units": {"IC50": "nM"}, "values": [
      {"compound": "Cn1cc2cc(-c3cnc(-c4ccc(O[C@H]5CC(C)(C)NC(C)(C)[C@H]5F)nn4)c(O)c3)cc(C#N)c2n1", "note": "(single isomer, unassigned) [Compound 34, 5-[6-(6-{[(3R,4S)-3-fluoro-2,2,6,6-tetramethylpiperidin-4-yl]oxy}pyridazin-3-yl)-5-hydroxypyridin-3-yl]-2-methyl-2H-indazole-7-carbonitrile or 5-[6-(6-{[(3S,4R)-3-fluoro-2,2,6,6-tetramethylpiperidin-4-yl]oxy}pyridazin-3-yl)-5-hydroxypyridin-3-yl]-2-methyl-2H-indazole-7-carbonitrile]", "IC50": "≤ 100"},
      {"compound": "CC1CN(c2ccc(-c3ncc(-c4cc(F)c5nn(C)cc5c4)cc3O)nn2)CCN1", "note": "(stereo not drawn) [Compound 97, 5-(7-fluoro-2-methyl-2H-indazol-5-yl)-2-[6-(3-methylpiperazin-1-yl)pyridazin-3-yl]pyridin-3-ol]", "IC50": "≤ 100"},
      {"compound": "COc1cc(-c2cnc(-c3ccc(OC4CC(C)(C)NC(C)(C)C4)nn3)c(O)c2)ncn1", "note": "[Compound 74, 5-(6-methoxypyrimidin-4-yl)-2-{6-[(2,2,6,6-tetramethylpiperidin-4-yl)oxy]pyridazin-3-yl}pyridin-3-ol]", "IC50": "≤ 100"},
      {"compound": "CC1(C)CC(Oc2ccc(-c3ncc(-c4cn[nH]c4F)cc3O)nn2)CC2(CC2)N1", "note": "(stereo not drawn) [Compound 26, 2-{6-[(5,5-dimethyl-4-azaspiro[2.5]octan-7-yl)oxy]pyridazin-3-yl}-5-(5-fluoro-1H-pyrazol-4-yl)pyridin-3-ol]", "IC50": "≤ 100"},
      {"compound": "Cn1ccc(-c2cnc(-c3ccc(O[C@H]4CC(C)(C)NC(C)(C)[C@H]4F)nn3)c(O)c2)cc1=O", "note": "(single isomer, unassigned) [Compound 37, 6-(6-{[(3R,4S)-3-fluoro-2,2,6,6-tetramethylpiperidin-4-yl]oxy}pyridazin-3-yl)-5-hydroxy-1′-methyl[3,4′-bipyridin]-2′(1′H)-one or 6-(6-{[(3S,4R)-3-fluoro-2,2,6,6-tetramethylpiperidin-4-yl]oxy}pyridazin-3-yl)-5-hydroxy-1′-methyl[3,4′-bipyridin]-2′(1′H)-one]", "IC50": "100 to 500"},
      {"compound": "C[C@]12CC[C@](C)(C[C@@H](Oc3ccc(-c4ncc(-c5cncnc5)cc4O)nn3)C1)N2", "note": "[Compound 36, 2-(6-{[(1R,3s,5S)-1,5-dimethyl-8-azabicyclo[3.2.1]octan-3-yl]oxy}pyridazin-3-yl)-5-(pyrimidin-5-yl)pyridin-3-ol and 2-(6-{[(1S,3r,5R)-1,5-dimethyl-8-azabicyclo[3.2.1]octan-3-yl]oxy}pyridazin-3-yl)-5-(pyrimidin-5-yl)pyridin-3-ol]", "IC50": "500 to 1000"},
      {"compound": "2-(3-{[(3R,4R)-3-fluoro-2,2,6,6-tetramethylpiperidin-4-yl]amino}-1,2,4-triazin-6-yl)-5-[1-(^2H3)methyl-1H-pyrazol-4-yl]pyridin-3-ol and 2-(3-{[(3S,4S)-3-fluoro-2,2,6,6-tetramethylpiperidin-4-yl]amino}-1,2,4-triazin-6-yl)-5-[1-(^2H3)methyl-1H-pyrazol-4-yl]pyridin-3-ol [Compound 140]", "IC50": "≤ 100"},
      {"compound": "Cc1nc2ccc(-c3cnc(-c4ccc(N5C[C@@H](C)N[C@@H](C)C5)nn4)c(O)c3)cn2n1", "note": "[Compound 99, 2-{6-[(3R,5S)-3,5-dimethylpiperazin-1-yl]pyridazin-3-yl}-5-(2-methyl[1,2,4]triazolo[1,5-a]pyridin-6-yl)pyridin-3-ol and 2-{6-[(3S,5R)-3,5-dimethylpiperazin-1-yl]pyridazin-3-yl}-5-(2-methyl[1,2,4]triazolo[1,5-a]pyridin-6-yl)pyridin-3-ol]", "IC50": "100 to 500"},
      {"compound": "Cc1cn2cc(-c3cnc(-c4ccc(N5CC6CC5CN6)nn4)c(O)c3)cnc2n1", "note": "(stereo not drawn) [Compound 116, 2-[6-(2,5-diazabicyclo[2.2.1]heptan-2-yl)pyridazin-3-yl]-5-(2-methylimidazo[1,2-a]pyrimidin-6-yl)pyridin-3-ol]", "IC50": "500 to 1000"},
      {"compound": "Cc1cn2nc(-c3cnc(-c4ccc(O[C@H]5CC(C)(C)NC(C)(C)[C@H]5F)nn4)c(O)c3)cc(C)c2n1", "note": "[Compound 38, 5-(2,8-dimethylimidazo[1,2-b]pyridazin-6-yl)-2-(6-{ [(3R,4S)-3-fluoro-2,2,6,6-tetramethylpiperidin-4-yl]oxy}pyridazin-3-yl)pyridin-3-ol or 5-(2,8-dimethylimidazo[1,2-b]pyridazin-6-yl)-2-(6-{ [(3S,4R)-3-fluoro-2,2,6,6-tetramethylpiperidin-4-yl]oxy}pyridazin-3-yl)pyridin-3-ol]", "IC50": "≤ 100"},
      {"compound": "[2H]C([2H])([2H])n1cc(-c2cnc(-c3ccc(N4CCC(NC(C)(C)C)C4)nn3)c(O)c2)cn1", "note": "(stereo not drawn) [Compound 29, 2-{6-[3-(tert-butylamino)pyrrolidin-1-yl]pyridazin-3-yl}-5-[1-(^2H3)methyl-1H-pyrazol-4-yl]pyridin-3-ol]", "IC50": "≤ 100"},
      {"compound": "CN[C@@H]1CCN(c2ccc(-c3ncc(-c4cc(OC)ncn4)cc3O)nn2)C1", "note": "[Compound 70, 5-(6-methoxypyrimidin-4-yl)-2-{6-[(3R)-3-(methylamino)pyrrolidin-1-yl]pyridazin-3-yl}pyridin-3-ol]", "IC50": "≤ 100"},
      {"compound": "6-[6-(6-{[(3R,4S)-3-fluoro-2,2,6,6-tetramethylpiperidin-4-yl]oxy}pyridazin-3-yl)-5-hydroxypyridin-3-yl]-2-methylimidazo[1,2-a]pyridine-8-carbonitrile and 6-[6-(6-{[(3S,4R)-3-fluoro-2,2,6,6-tetramethylpiperidin-4-yl]oxy}pyridazin-3-yl)-5-hydroxypyridin-3-yl]-2-methylimidazo[1,2-a]pyridine-8-carbonitrile [Compound 59]", "IC50": "≤ 100"},
      {"compound": "CC1(C)C[C@@H](Oc2ccc(-c3ncc(-c4nc5cnccn5n4)cc3O)nn2)[C@@H](F)C(C)(C)N1.CC1(C)C[C@H](Oc2ccc(-c3ncc(-c4nc5cnccn5n4)cc3O)nn2)[C@H](F)C(C)(C)N1", "note": "(mixture of isomers) [Compound 72, 2-(6-{[(3R,4S)-3-fluoro-2,2,6,6-tetramethylpiperidin-4-yl]oxy}pyridazin-3-yl)-5-([1,2,4]triazolo[1,5-a]pyrazin-2-yl)pyridin-3-ol and 2-(6-{[(3S,4R)-3-fluoro-2,2,6,6-tetramethylpiperidin-4-yl]oxy}pyridazin-3-yl)-5-([1,2,4]triazolo[1,5-a]pyrazin-2-yl)pyridin-3-ol]", "IC50": "100 to 500"},
      {"compound": "Oc1cc(-n2nccn2)cnc1-c1ccc(N2CCN[C@@H](C3CC3)C2)nn1", "note": "[Compound 128, 2-{6-[(3S)-3-cyclopropylpiperazin-1-yl]pyridazin-3-yl}-5-(2H-1,2,3-triazol-2-yl)pyridin-3-ol]", "IC50": "≤ 100"},
      {"compound": "CC(C)(C)N[C@H]1CCN(c2ncc(-c3ncc(-c4c[nH]nc4F)cc3O)nn2)C1", "note": "[Compound 145, 2-{3-[(3S)-3-(tert-butylamino)pyrrolidin-1-yl]-1,2,4-triazin-6-yl}-5-(3-fluoro-1H-pyrazol-4-yl)pyridin-3-ol]", "IC50": "≤ 100"},
      {"compound": "CC1CN(c2ccc(-c3ncc(NCc4ccccn4)cc3O)nn2)CCN1", "note": "(stereo not drawn) [Compound 109, 2-[6-(3-methylpiperazin-1-yl)pyridazin-3-yl]-5-{[(pyridin-2-yl)methyl]amino}pyridin-3-ol]", "IC50": "500 to 1000"},
      {"compound": "Cc1cn2nc(-c3cnc(-c4ccc(OC5CC(C)(C)NC(C)(C)C5)nn4)c(O)c3)cc(C)c2n1", "note": "[Compound 50, 5-(2,8-dimethylimidazo[1,2-b]pyridazin-6-yl)-2-{6-[(2,2,6,6-tetramethylpiperidin-4-yl)oxy]pyridazin-3-yl}pyridin-3-ol]", "IC50": "≤ 100"}
    ]}
  ]
}
